ChEMBL document CHEMBL1201862, “PubChem BioAssay data set” (2004)
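48-hour exposure; five concentrations; linearly interpolated endpoints. Here, GI50 denotes the concentration required for 50% inhibition of growth.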 The source made the active and inactive calls. No stated cut-off is given here; in the data, active = GI50 up to about 1.1 µM and inactive = higher.

Assays:
Experiment in all cases: inhibition of tumour cell growth, NCI panel, 48 h
[1] = tested on: NCI-H522
[2] = tested on: UO-31
[3] = tested on: HOP-92
[4] = tested on: RXF 393
[5] = tested on: A549
[6] = tested on: SK-OV-3
[7] = tested on: HCT-15
[8] = tested on: SNB-75
[9] = tested on: ACHN
[10] = tested on: SNB-19
[11] = tested on: SR
[12] = tested on: RPMI-8226
[13] = tested on: MDA-MB-231
[14] = tested on: M14
[15] = tested on: SK-MEL-2
[16] = tested on: K562
[17] = tested on: HOP-62

## O=C1c2ccccc2C(=O)c2c(OCC3CO3)ccc(OCC3CO3)c21 (configuration not stated)
[1]
  GI50: 3.26 µM (inactive)
[2]
  GI50: 2.94 µM (inactive)
[3]
  GI50: 2.67 µM (inactive)
[4]
  GI50: 3.96 µM (inactive)
[5]
  GI50: 3.46 µM (inactive)
[6]
  GI50: 12.4 µM (inactive)
[7]
  GI50: 1.74 µM
[8]
  GI50: 12.4 µM (inactive)
[9]
  GI50: 0.964 µM (active)
[10]
  GI50: 7.67 µM (inactive)
[11]
  GI50: 0.113 µM (active)
[12]
  GI50: 6 µM (inactive)
[13]
  GI50: 12.5 µM (inactive)
[14]
  GI50: 1.3 µM (inactive)
[15]
  GI50: 14 µM (inactive)
[16]
  GI50: 0.982 µM (active)
[17]
  GI50: 1.95 µM (inactive)

## Cc1cc(=O)oc2cc(O)c(CN(C)CC(=O)O)cc12
[1]
  GI50: > 100 µM (inactive)
[2]
  GI50: > 100 µM (inactive)
[3]
  GI50: > 100 µM (inactive)
[4]
  GI50: > 100 µM (inactive)
[5]
  GI50: > 100 µM (inactive)
[7]
  GI50: > 100 µM
[8]
  GI50: > 100 µM (inactive)
[9]
  GI50: > 100 µM (inactive)
[10]
  GI50: > 100 µM (inactive)
[11]
  GI50: > 100 µM (inactive)
[12]
  GI50: > 100 µM (inactive)
[13]
  GI50: > 100 µM (inactive)
[14]
  GI50: > 100 µM (inactive)
[15]
  GI50: > 100 µM (inactive)
[16]
  GI50: > 100 µM (inactive)

## C=CCNS(=O)(=O)c1ncnc2[nH]cnc12
[1]
  GI50: > 100 µM (inactive)
[2]
  GI50: > 100 µM (inactive)
[3]
  GI50: 5.75 µM (inactive)
[4]
  GI50: 59.7 µM (inactive)
[5]
  GI50: > 100 µM (inactive)
[6]
  GI50: > 100 µM (inactive)
[7]
  GI50: > 100 µM
[8]
  GI50: > 100 µM (inactive)
[9]
  GI50: > 100 µM (inactive)
[10]
  GI50: > 100 µM (inactive)
[11]
  GI50: 69.8 µM (inactive)
[12]
  GI50: 11.8 µM (inactive)
[13]
  GI50: > 100 µM (inactive)
[14]
  GI50: > 100 µM (inactive)
[15]
  GI50: > 100 µM (inactive)
[16]
  GI50: 10.5 µM (inactive)
[17]
  GI50: > 100 µM (inactive)

## CC1(C)CCC[C@@]2(C)C1C(=O)[C@@H]1O[C@]1(C)[C@@H]2CO (some centres not stated)
[1]
  GI50: 22.6 µM (inactive)
[2]
  GI50: 53.7 µM (inactive)
[3]
  GI50: 27.8 µM (inactive)
[4]
  GI50: 25.6 µM (inactive)
[5]
  GI50: 19.6 µM (inactive)
[6]
  GI50: 39.6 µM (inactive)
[7]
  GI50: 38 µM
[8]
  GI50: 24.5 µM (inactive)
[9]
  GI50: 40.3 µM (inactive)
[10]
  GI50: 24.4 µM (inactive)
[11]
  GI50: 0.587 µM (active)
[12]
  GI50: 15.2 µM (inactive)
[13]
  GI50: 49 µM (inactive)
[14]
  GI50: 24.4 µM (inactive)
[15]
  GI50: 28.1 µM (inactive)
[16]
  GI50: 27.3 µM (inactive)
[17]
  GI50: 40.2 µM (inactive)

## COc1ccc2nc(-c3ccccc3)cc(OCC(=O)O)c2c1
[1]
  GI50: > 100 µM (inactive)
[2]
  GI50: 25.4 µM (inactive)
[3]
  GI50: > 100 µM (inactive)
[5]
  GI50: > 100 µM (inactive)
[6]
  GI50: > 100 µM (inactive)
[7]
  GI50: > 100 µM
[8]
  GI50: > 100 µM (inactive)
[9]
  GI50: > 100 µM (inactive)
[10]
  GI50: > 100 µM (inactive)
[11]
  GI50: > 100 µM (inactive)
[12]
  GI50: > 100 µM (inactive)
[13]
  GI50: > 100 µM (inactive)
[14]
  GI50: > 100 µM (inactive)
[15]
  GI50: > 100 µM (inactive)
[16]
  GI50: > 100 µM (inactive)
[17]
  GI50: > 100 µM (inactive)

## O=C1N[C@@H](c2c[nH]c3ccc(Br)cc23)C(=O)N[C@H]1c1c[nH]c2ccc(Br)cc12
[1]
  GI50: 6.61 µM (inactive)
[2]
  GI50: 16.3 µM (inactive)
[3]
  GI50: 3.71 µM (inactive)
[4]
  GI50: 15.6 µM (inactive)
[5]
  GI50: 13.8 µM (inactive)
[6]
  GI50: 15.9 µM (inactive)
[7]
  GI50: 14.9 µM
[8]
  GI50: 1.55 µM (inactive)
[9]
  GI50: 3.68 µM (inactive)
[10]
  GI50: 15.2 µM (inactive)
[11]
  GI50: 4.72 µM (inactive)
[12]
  GI50: 7.46 µM (inactive)
[13]
  GI50: 8.87 µM (inactive)
[14]
  GI50: 9.12 µM (inactive)
[15]
  GI50: 13.6 µM (inactive)
[16]
  GI50: 4.47 µM (inactive)
[17]
  GI50: 12 µM (inactive)

## NC(=O)c1ccc(NCC2=CC(=O)C=CC2=O)cc1
[1]
  GI50: 16.3 µM (inactive)
[2]
  GI50: 17.3 µM (inactive)
[3]
  GI50: 16.5 µM (inactive)
[4]
  GI50: 18.7 µM (inactive)
[5]
  GI50: > 100 µM (inactive)
[6]
  GI50: > 100 µM (inactive)
[7]
  GI50: 19.2 µM
[8]
  GI50: 21 µM (inactive)
[9]
  GI50: 17.7 µM (inactive)
[10]
  GI50: > 100 µM (inactive)
[11]
  GI50: 24.9 µM (inactive)
[12]
  GI50: 18.7 µM (inactive)
[13]
  GI50: 20.1 µM (inactive)
[14]
  GI50: 16.9 µM (inactive)
[15]
  GI50: 20.4 µM (inactive)
[16]
  GI50: 21.8 µM (inactive)
[17]
  GI50: > 100 µM (inactive)

## COc1cc(C2c3cc4c(cc3C(O)C3CCC(=O)N23)OCO4)cc(OC)c1OC (configuration not stated)
[1]
  GI50: 16.9 µM (inactive)
[2]
  GI50: 15.7 µM (inactive)
[3]
  GI50: 33 µM (inactive)
[5]
  GI50: 39.3 µM (inactive)
[6]
  GI50: 80.2 µM (inactive)
[7]
  GI50: 31 µM
[8]
  GI50: 26.7 µM (inactive)
[9]
  GI50: 40 µM (inactive)
[10]
  GI50: 29.9 µM (inactive)
[11]
  GI50: 39.9 µM (inactive)
[12]
  GI50: 27.1 µM (inactive)
[13]
  GI50: > 100 µM (inactive)
[14]
  GI50: 38.9 µM (inactive)
[15]
  GI50: 27 µM (inactive)
[16]
  GI50: 26.5 µM (inactive)
[17]
  GI50: 39.2 µM (inactive)
